Data taken from patent US11446287B2, “Compounds and methods for EP300 or CBP modulation and indications therefor” (Opna Immuno-Oncology SA, priority 2019, dated 2022).

Biological target: T1, Recombinant human CBP containing the bromodomain (CBP-BD (1043-1159)) (Homo sapiens, UniProt Q92793)
T1 construct: Recombinant human CBP bromodomain (CBP-BD (1043-1159)); made in house; host or cells: E. coli BL21-CodonPlus (DE3), modified pET vector
Assay: CBP Alphascreen binding assay
Conditions: read-out: CREBBP (CBP) IC50
Outline: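 Buffer: 50 mM HEPES pH 7.5, 50 mM NaCl, 0.01% BSA, 0.01% Triton X-100, 2 mM DTT. The signal was normalised to plate controls and fitted with a four-parameter curve to give IC50.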

T1 sequence (Q92793 1081-1197): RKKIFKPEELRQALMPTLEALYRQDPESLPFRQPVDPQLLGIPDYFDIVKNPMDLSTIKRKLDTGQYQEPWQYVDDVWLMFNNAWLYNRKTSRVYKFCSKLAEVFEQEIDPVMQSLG

SMILES	IC50
CCOc1cc(C(=O)O)cc(OCC)c1-n1cc(-c2cnn(CCC#N)c2)c2ncc(-c3c(C)noc3C)cc21 [P-0266, 4-(3-(1-(2-cyanoethyl)-1H-pyrazol-4-yl)-6-(3,5-dimethylisoxazol-4-yl)-1H-pyrrolo[3,2-b]pyridin-1-yl)-3,5-diethoxybenzoic acid]	0.1 to 1000 nM
CCOc1cc(C(=O)O)cc(OCC)c1-n1cc(-c2cnn(CC(=O)N(C)C)c2)c2ncc(-c3c(C)noc3C)cc21 [P-0267, 4-(3-(1-(2-(dimethylamino)-2-oxoethyl)-1H-pyrazol-4-yl)-6-(3,5-dimethylisoxazol-4-yl)-1H-pyrrolo[3,2-b]pyridin-1-yl)-3,5-diethoxybenzoic acid]	0.1 to 1000 nM
Cc1noc(C)c1-c1cnc2c(c1)c(-c1cc(C(=O)O)ccc1OC(F)(F)F)cn2-c1ccc(F)cc1F [P-0268, 3-(1-(2,4-difluorophenyl)-5-(3,5-dimethylisoxazol-4-yl)-1H-pyrrolo[2,3-b]pyridin-3-yl)-4-(trifluoromethoxy)benzoic acid]	0.1 to 1000 nM
Cc1noc(C)c1-c1cnc2c(-c3ccc(F)cc3F)cn(-c3c(OC(C)C)cc(C(=O)O)cc3OC(C)C)c2c1 [P-0269, 4-(3-(2,4-difluorophenyl)-6-(3,5-dimethylisoxazol-4-yl)-1H-pyrrolo[3,2-b]pyridin-1-yl)-3,5-diisopropoxybenzoic acid]	0.1 to 1000 nM
CCOc1cc(C(=O)O)cc(OCC)c1-n1cc(CC2CCC2)c2ncc(-n3c(C)nnc3C)cc21 [P-0270, 4-(3-(cyclobutylmethyl)-6-(3,5-dimethyl-4H-1,2,4-triazol-4-yl)-1H-pyrrolo[3,2-b]pyridin-1-yl)-3,5-diethoxybenzoic acid]	1000 to 8000 nM
CCOc1cc(C(=O)O)cc(OCC)c1-n1cc(C2CCC(F)(F)CC2)c2ncc(-c3c(C)noc3C)cc21 [P-0271, 4-(3-(4,4-difluorocyclohexyl)-6-(3,5-dimethylisoxazol-4-yl)-1H-pyrrolo[3,2-b]pyridin-1-yl)-3,5-diethoxybenzoic acid]	0.1 to 1000 nM
Cc1noc(C)c1-c1cnc2c(c1)c(-c1cnn(CC(=O)O)c1)cn2-c1ncccc1C#CC1CC1 [P-0272, 2-(4-(1-(3-(cyclopropylethynyl)pyridin-2-yl)-5-(3,5-dimethylisoxazol-4-yl)-1H-pyrrolo[2,3-b]pyridin-3-yl)-1H-pyrazol-1-yl)acetic acid]	0.1 to 1000 nM
Cc1noc(C)c1-c1cnc2c(c1)c(-c1ccc(C(=O)O)cc1OC(F)F)cn2-c1ccccc1 [P-0273, 3-(difluoromethoxy)-4-(5-(3,5-dimethylisoxazol-4-yl)-1-phenyl-1H-pyrrolo[2,3-b]pyridin-3-yl)benzoic acid]	0.1 to 1000 nM
Cc1noc(C)c1-c1cnc2c(-c3ccccc3)cn(-c3cc(C(=O)O)ccc3OC(F)(F)F)c2c1 [P-0274, 3-(6-(3,5-dimethylisoxazol-4-yl)-3-phenyl-1H-pyrrolo[3,2-b]pyridin-1-yl)-4-(trifluoromethoxy)benzoic acid]	0.1 to 1000 nM
Cc1noc(C)c1-c1cnc2c(c1)c(-c1ccc(C(=O)O)cc1OC(C)C)cn2-c1ccccc1 [P-0275, 4-(5-(3,5-dimethylisoxazol-4-yl)-1-phenyl-1H-pyrrolo[2,3-b]pyridin-3-yl)-3-isopropoxybenzoic acid]	0.1 to 1000 nM
Cc1noc(C)c1-c1cnc2c(c1)c(-c1ccc(C(=O)O)cc1OC1CCC1)cn2-c1ccccc1 [P-0276, 3-cyclobutoxy-4-(5-(3,5-dimethylisoxazol-4-yl)-1-phenyl-1H-pyrrolo[2,3-b]pyridin-3-yl)benzoic acid]	0.1 to 1000 nM
Cc1noc(C)c1-c1cnc2c(c1)c(-c1ccc(C(=O)O)cc1OCC(F)F)cn2-c1ccccc1 [P-0277, 3-(2,2-difluoroethoxy)-4-(5-(3,5-dimethylisoxazol-4-yl)-1-phenyl-1H-pyrrolo[2,3-b]pyridin-3-yl)benzoic acid]	0.1 to 1000 nM
Cc1noc(C)c1-c1cnc2c(c1)c(-c1ccc(C(=O)O)cc1OCC(F)(F)F)cn2-c1ccccc1 [P-0278, 4-(5-(3,5-dimethylisoxazol-4-yl)-1-phenyl-1H-pyrrolo[2,3-b]pyridin-3-yl)-3-(2,2,2-trifluoroethoxy)benzoic acid]	0.1 to 1000 nM
Cc1noc(C)c1-c1cnc2c(c1)c(-c1ccc(C(=O)O)cc1OC(F)(F)F)cn2-c1ccc(F)cc1 [P-0279, 4-(5-(3,5-dimethylisoxazol-4-yl)-1-(4-fluorophenyl)-1H-pyrrolo[2,3-b]pyridin-3-yl)-3-(trifluoromethoxy)benzoic acid]	0.1 to 1000 nM
Cc1noc(C)c1-c1cnc2c(c1)c(-c1cnn(CC(=O)O)c1)cn2C(C1CC1)C1CC1 [P-0280, 2-(4-(1-(dicyclopropylmethyl)-5-(3,5-dimethylisoxazol-4-yl)-1H-pyrrolo[2,3-b]pyridin-3-yl)-1H-pyrazol-1-yl)acetic acid]	0.1 to 1000 nM
Cc1noc(C)c1-c1cnc2c(c1)c(-c1ccc(C(=O)O)cc1OC(F)(F)F)cn2-c1cnc(N2CCC2)nc1 [P-0281, 4-(1-(2-(azetidin-1-yl)pyrimidin-5-yl)-5-(3,5-dimethylisoxazol-4-yl)-1H-pyrrolo[2,3-b]pyridin-3-yl)-3-(trifluoromethoxy)benzoic acid]	0.1 to 1000 nM
Cc1noc(C)c1-c1cnc2c(c1)c(-c1ccc(C(=O)O)cc1OC(F)(F)F)cn2-c1ccc(S(C)(=O)=O)cc1 [P-0282, 4-(5-(3,5-dimethylisoxazol-4-yl)-1-(4-(methylsulfonyl)phenyl)-1H-pyrrolo[2,3-b]pyridin-3-yl)-3-(trifluoromethoxy)benzoic acid]	0.1 to 1000 nM
Cc1noc(C)c1-c1cnc2c(c1)c(-c1c(Cl)cc(C(=O)O)cc1OC(C)C)cn2C(C1CC1)C1CC1 [P-0283, 3-chloro-4-(1-(dicyclopropylmethyl)-5-(3,5-dimethylisoxazol-4-yl)-1H-pyrrolo[2,3-b]pyridin-3-yl)-5-isopropoxybenzoic acid]	0.1 to 1000 nM
Cc1noc(C)c1-c1cnc2c(c1)c(-c1cc(C(=O)O)ccc1OC(F)(F)F)cn2C(C1CC1)C1CC1 [P-0284, 3-(1-(dicyclopropylmethyl)-5-(3,5-dimethylisoxazol-4-yl)-1H-pyrrolo[2,3-b]pyridin-3-yl)-4-(trifluoromethoxy)benzoic acid]	0.1 to 1000 nM
Cc1noc(C)c1-c1cnc2c(c1)c(-c1ccc(C(=O)O)cc1OC(F)(F)F)cn2[C@H]1CCOC1 [P-0285, (S)-4-(5-(3,5-dimethylisoxazol-4-yl)-1-(tetrahydrofuran-3-yl)-1H-pyrrolo[2,3-b]pyridin-3-yl)-3-(trifluoromethoxy)benzoic acid]	0.1 to 1000 nM
Cc1noc(C)c1-c1cnc2c(c1)c(-c1ccc(C(=O)O)cc1OC(F)(F)F)cn2[C@@H]1CCOC1 [P-0286, (R)-4-(5-(3,5-dimethylisoxazol-4-yl)-1-(tetrahydrofuran-3-yl)-1H-pyrrolo[2,3-b]pyridin-3-yl)-3-(trifluoromethoxy)benzoic acid]	0.1 to 1000 nM
CCn1cc(-n2cc(-c3ccc(C(=O)O)cc3OC(F)(F)F)c3cc(-c4c(C)noc4C)cnc32)c(C)n1 [P-0287, 4-(5-(3,5-dimethylisoxazol-4-yl)-1-(1-ethyl-3-methyl-1H-pyrazol-4-yl)-1H-pyrrolo[2,3-b]pyridin-3-yl)-3-(trifluoromethoxy)benzoic acid]	0.1 to 1000 nM
Cc1nn(C(F)F)cc1-n1cc(-c2ccc(C(=O)O)cc2OC(F)(F)F)c2cc(-c3c(C)noc3C)cnc21 [P-0288, 4-(1-(1-(difluoromethyl)-3-methyl-1H-pyrazol-4-yl)-5-(3,5-dimethylisoxazol-4-yl)-1H-pyrrolo[2,3-b]pyridin-3-yl)-3-(trifluoromethoxy)benzoic acid]	0.1 to 1000 nM
Cc1noc(C)c1-c1cnc2c(c1)c(-c1ccc(C(=O)O)cc1OC(F)(F)F)cn2-c1cnn(C(F)F)c1C [P-0289, 4-(1-(1-(difluoromethyl)-5-methyl-1H-pyrazol-4-yl)-5-(3,5-dimethylisoxazol-4-yl)-1H-pyrrolo[2,3-b]pyridin-3-yl)-3-(trifluoromethoxy)benzoic acid]	0.1 to 1000 nM
Cc1noc(C)c1-c1cnc2c(c1)c(-c1ccc(C(=O)O)cc1OC(F)(F)F)cn2C1CCNCC1 [P-0290, 4-(5-(3,5-dimethylisoxazol-4-yl)-1-(piperidin-4-yl)-1H-pyrrolo[2,3-b]pyridin-3-yl)-3-(trifluoromethoxy)benzoic acid]	0.1 to 1000 nM
CC(=O)N1CCC(n2cc(-c3ccc(C(=O)O)cc3OC(F)(F)F)c3cc(-c4c(C)noc4C)cnc32)CC1 [P-0291, 4-(1-(1-acetylpiperidin-4-yl)-5-(3,5-dimethylisoxazol-4-yl)-1H-pyrrolo[2,3-b]pyridin-3-yl)-3-(trifluoromethoxy)benzoic acid]	0.1 to 1000 nM
Cc1noc(C)c1-c1cnc2c(c1)c(-c1ccc(C(=O)O)cc1OC(F)(F)F)cn2C1CCN(S(C)(=O)=O)CC1 [P-0292, 4-(5-(3,5-dimethylisoxazol-4-yl)-1-(1-(methylsulfonyl)piperidin-4-yl)-1H-pyrrolo[2,3-b]pyridin-3-yl)-3-(trifluoromethoxy)benzoic acid]	0.1 to 1000 nM
Cc1noc(C)c1-c1cnc2c(c1)c(-c1ccc(C(=O)O)cc1OC(F)(F)F)cn2-c1ccncc1F [P-0293, 4-(5-(3,5-dimethylisoxazol-4-yl)-1-(3-fluoropyridin-4-yl)-1H-pyrrolo[2,3-b]pyridin-3-yl)-3-(trifluoromethoxy)benzoic acid]	0.1 to 1000 nM
Cc1noc(C)c1-c1cnc2c(c1)c(-c1ccc(C(=O)O)cc1OC(F)(F)F)cn2-c1cnn(CC(C)(C)O)c1 [P-0294, 4-(5-(3,5-dimethylisoxazol-4-yl)-1-(1-(2-hydroxy-2-methylpropyl)-1H-pyrazol-4-yl)-1H-pyrrolo[2,3-b]pyridin-3-yl)-3-(trifluoromethoxy)benzoic acid]	0.1 to 1000 nM
CCOc1cc(C(=O)O)ncc1-c1cn(-c2ccc(F)cc2F)c2ncc(-c3c(C)noc3C)cc12 [P-0295, 5-(1-(2,4-difluorophenyl)-5-(3,5-dimethylisoxazol-4-yl)-1H-pyrrolo[2,3-b]pyridin-3-yl)-4-ethoxypicolinic acid]	0.1 to 1000 nM
